Experimental data taken from patent US20210220184A1, “ABSORBENT TAMPON FOR TREATMENT OF MENSTRUAL SYMPTOMS” (Anne's Day Ltd, priority 2018, published 2021).

Tested on: women with a history of mild or sever dysmenorrhea
Assay: Clinical study of tampon with CBD (randomized, controlled, crossover, two menstrual cycles; questionnaire and diary data)
Format: in vivo
Details: tests performed by the inventors; cannabidiol provided on the tampon
Method: The following study was performed to assess the safety and efficacy of a tampon covered with CBD oil.
Patients and Samples. A total of 130 women aged between 18 and 42 with a history of mild or sever dysmenorrhea were recruited for this study.
Study design. […] Patients were divided into two groups. One group used a hemp, CBD-infused tampon. The tampon contained […] of CBD oil. The tampon consisted of highly absorbent organic hemp fibers and organic hemp overwrap, organic cotton stitching thread and organic cotton removal cord, and a layer of CBD oil sprayed on top of the hemp overwrap. A second group used a standard off-the-shelf tampon product as a control. The off-the-shelf tampon consisted of blended rayon and viscose fibers with a non-woven rayon overwrap, cotton stitching thread and removal cord.
In a first visit, a patient underwent a gynecological exam and had blood drawn to test for STIs. If the patient fit inclusion criteria, in a second visit, the patient was divided into an experimental group or control group. A control test for levels of CBD in the bloodstream was performed on all participants and the results recorded. All participants were given diaries and instructed to write a detailed account of the comfort of tampon insertion and removal, comfort of wear, and levels of pain experienced. […]

C=C(C)[C@@H]1CCC(C)=C[C@H]1c1c(O)cc(CCCCC)cc1O [cannabidiol]
vaginal delivery from the tampon to treat symptoms associated with menstruation: can be delivered vaginally
